Here are results for four compounds from patent US5034531A, “Fused polycyclic pyranyl compounds as antiviral agents” (priority 1988, dated 1991).

The structures appear in SMILES notation. Values after ≈ are worked out from the molar mass of the structure shown.

The experiment deals with HSV-2. In words: Transient expression assay: inhibition of HSV replication (HSV-2-induced β-galactosidase expression from HSV-1 TK promoter/Lac Z plasmid pON 245 in HeLa cells). It is filed as cell-based, Herpes simplex virus HSV-2 (ATCC VR-540). The note with it: Human alphaherpesvirus 2, HeLa, 24 h, read-out: IC50-values for Inhibition of HSV replication. The protocol: The following example illustrates the activities of various compounds for inhibiting beta-galactosidase.
Transient Expression Assay
Herpes simplex virus (HSV) is grown and titered on Vero cells, a standard cell line.
Plasmid pON 245 (constructed by Ed Mocarski at Stanford University, Stanford California) is used for the assay. This plasmid contains the HSV-1 thymidine kinase (TK) promoter located immediately 5' of the E. coli Lac Z gene and controls transcription from the bacterial gene in transient assays. Plasmids (22 μg/10^6 cells) are introduced into standard HeLa cells by DEAE-dextran-mediated transfection. DEAE-dextran is an electropositivity charged polymer which is a diethylamino ethyl ether of dextran. Forty-eight hours after transfection, cells are infected with HSV-2 (American Type Collection Culture (ATCC) VR-540) (multiplicity of infection=5 plaque-forming units per cell). Twenty-four hours after viral infection, levels of β-galactosidase in cells are assayed by incubation in the presence of 4-methylumbelliferyl-β-D-galactoside for 2 hours on a microfluorimeter after addition of 0.1 M glycine buffer, pH=10.3. An inhibitory concentration (IC50 value), for example, of 8 μg/ml indicates the amount of compound which reduces maximal β-galactosidase expression by 50 percent. The inhibition of expression of β-galactosidase activity indicates the inhibition of viral replication at events prior to or including […] kinase (TK) expression by HSV-2.

Consider `O=c1c2c(oc3ncccc13)-c1ccccc1CCC2`, for which the IC50 (usually the concentration needed to halve the response being measured) was greater than 25 µg/mL.
Turning to `O=c1c2c(oc3ccccc13)-c1ccccc1CCC2`, the IC50 is 8 µg/mL (≈ 30.5 µM).
On to `O=c1c(-c2ccccc2)coc2ncc(Br)cc12`, for which the IC50 was 10 µg/mL (≈ 33.1 µM).
With `O=c1c2c(oc3ncccc13)CCc1ccccc1-2`, the IC50 turned out to be 16 µg/mL (≈ 64.2 µM).
